Data as given in article PMC5729604, “Dual inhibitors of hepatitis C virus and hepatocellular carcinoma: design, synthesis and docking studies” (Future Science OA, 2017).
In brackets after ≈: the same amount, converted by molar mass. Read-outs that look alike come from different tables or passages of the source.

Experiments:
[1] = system: human peripheral blood mononuclear cells (PBMCs); format: cell-based; settings: 72 h
Protocol: The safe compounds on RBCs (5a-g, 5i-l, 5p-r, 5v-w, 6b-g) were subjected to the in vitro cytotoxicity assay on human peripheral blood mononuclear cells (PBMCs). Viability of cells was measured using neutral red uptake assay as described by Borenfreund and Puerner to determine the concentrations of each compound that were not cytotoxic. The results were interpreted to calculate both the lethal concentration that kills 50% of cells (LD50) and the maximum safe concentration that causes 100% viability (LD0) of each compound using GraphPad InStat 3.0 software (Figure 6 & Supplementary Table 3).
The PBMCs were isolated by density gradient centrifugation technique as described by Boyum. Blood samples were freshly collected into heparinized or ethylenediaminetetraacetic acid sterile tubes. Blood was diluted using equal volume of RPMI-1640 medium containing 25 mM HEPES and then layered over equal volume of Ficoll-Pague™ Plus (Fisher BioReagents™ Lymphocyte Separation Medium-LSM, PA, USA) and centrifuged (2000 r.p.m. for 30 min at acceleration and deceleration speeds zero & zero) at room temperature. The buffy mononuclear cell layer was collected using sterile Pasteur pipette into 50 ml sterile Falcon tube and washed twice in phosphate-buffered saline (Sigma-Aldrich) using centrifugation (1650 r.p.m. for 5 min). The isolated PBMCs viability was determined by hemocytometer count using the trypan blue exclusion method. The PBMCs were resuspended at 1 × 10^6 cells/ml in RPMI-1640 medium containing 25 mM HEPES supplemented with 10% heat-inactivated FBS. The appropriate number of cells was chosen to be 1 × 10^5 cells/well (100 μl of the prepared suspension).
(§1) A 2 mg/ml stock solution of each compound was prepared in DMF and filtered using a 0.2 μM syringe filter. The desired concentrations (20, 10, 5, 2.5 and 1.25 μg/ml) were prepared using serial dilution in a 96-well plate. Compound wells were prepared by adding 100 μl of the previously prepared concentrations to a suspension of 1 × 10^5 PBMCs in 100 μl culture media. Parallel concentrations of the solvent were prepared to be used as controls. Control wells were prepared by adding 100 μl culture media to a suspension of 1 × 10^5 PBMCs in 100 μl culture media. Blank wells contained 200 μl of culture media only (without cells or compound solution). Each set of samples was pipetted in duplicate. The plate was then gently shaken then incubated at 37°C, 5% CO2 for 72 h.
After incubation, neutral red assay was performed as described previously, and surviving cell fraction was calculated according to the previously mentioned equation. Also, the results were interpreted to calculate both the lethal concentration that kills 50% of cells (LD50) and the maximum safe concentration that cause 100% viability (LD0) of each compound using GraphPad InStat 3.0 software.

[2] = system: human HCC cell line HepG2; assay: cells; format: cell-based; settings: for IC50: Homo sapiens, HepG2, 72 h, neutral red; for IC50 / (LD0) HepG2 / Safe doses (100% viability of HepG2) LD0: 72 h; for (LD0) HepG2 / Safe doses (100% viability of HepG2) LD0: human; for in vitro anticancer activity against HepG2, in words: IC50 <100 μg/ml potential, 100-1000 μg/ml moderate
Protocol: The safe compounds on RBCs (5a-g, 5i-l, 5p-r, 5v-w, 6b-g) were screened for their potential anticancer activity against human HCC cell line HepG2. HepG2 cells were exposed to the test compounds, then viability of cells was measured using neutral red uptake assay as described by Borenfreund and Puerner. This assay depends on the fact that neutral red dye can be incorporated into the lysosomes of living cells providing a quantitative assay to the cytotoxic effects. The results were interpreted to calculate both the concentration causing 50% cancer cell death (IC50) of each compound and the maximum safe concentration that cause 100% viability (LD0; to be used in the in vitro anti-HCV testing) using GraphPad InStat 3.0 software (Figure 5 & Supplementary Table 2).
HepG2 cells were routinely maintained as adherent cell cultures in RPMI-1640 medium (Lonza Group Ltd, Basel, Switzerland) supplemented with 10% fetal bovine serum (FBS; Lonza, IL, USA) at 37°C in a humidified air incubator containing 5% CO2. Cells were subcultured for 2 weeks before assay. Cell viability was assessed using trypan blue exclusion method.
HepG2 cells were washed twice in RPMI-1640 medium supplemented with 200 μM L-glutamine (Lonza) and […] 4-(2-hydroxyethyl)-1-piperazineethanesulfonic acid (HEPES) buffer (Lonza). The cells were suspended at 3 × 10^4 cells/ml in RPMI culture medium (RPMI supplemented medium and 10% FBS). The appropriate number of cells was chosen to be 3 × 10^3 cells/well (100 μl of the prepared suspension), and the cells were left to adhere on the polystyrene 96-well plates in an incubator at 37°C, 5% CO2 and 95% humidity for 24 h. The cells were washed once using RPMI supplemented medium.
as §1, with “a” for “a suspension of 1 × 10^5 PBMCs in”, “of HepG2 cells suspension.” for “culture media.”, “controls. 5-Fluorouracil was used as a positive control.” for “controls.”, “was” for “was then”, “shaken,” for “shaken”
After incubation, the plate was centrifuged (2000 r.p.m. for 10 min). The media were discarded by inversion over paper towels. A working solution (100 μg/ml) of neutral red stain (Bio Basic Inc, Markham, Canada) was prepared, and 100 μl of this solution was added to each well, then the plate was gently shaken. The plate was incubated at 37°C in humidified 5% CO2 for 3 h, and then centrifuged (2000 r.p.m. for 10 min). Excess dyes were discarded, and the cells were fixed with 100 μl fixing solution (0.5% formalin with 1% calcium chloride [Sigma-Aldrich]) for 1 min. Cells were destained in 100 μl destaining solution (50% ethanol with 1% glacial acetic acid [Sigma-Aldrich]) for 5 min by shaking. The stain intensity was assayed using automated microplate reader spectrophotometer adjusted at 490 nm. Surviving cell fraction was calculated according to the following equation: [drawing 3]
The results were interpreted to calculate both the concentration causing 50% cancer cell death (IC50) of each compound and the maximum safe concentration that cause 100% viability (LD0; to be used in the in vitro anti-HCV testing) using GraphPad InStat 3.0 software.

[3] = Supplementary Table 2, read-out: Anticancer (HepG2) IC50
[4] = Table 1, read-out: IC50 (HepG2)

| SMILES | IC50 [2, 3] [µg/mL] | IC50 [2, 4] [µg/mL] | (LD0) PBMCs [1] [µg/mL] | LD0 [1] [µg/mL] | LD50 [1] [µg/mL] | (LD0) HepG2 [2] [µg/mL] | Safe doses (100% viability of HepG2) LD0 [2] [µg/mL] | in vitro anticancer activity against HepG2, in words [2] | LD50 (PBMCs) [1] [µg/mL] | Selectivity index ([2]; LD50 on PBMC / IC50 on HepG2) | Selectivity index ([2]; LD50 on normal cells / IC50 on cancer cells, larger than three = highly selective) |
| --- | --- | --- | --- | --- | --- | --- | --- | --- | --- | --- | --- |
| CC(=NN=C1SC(=Cc2cn(-c3ccccc3)nc2-c2ccc(Cl)cc2)C(=O)N1c1ccc(Cl)cc1)c1cc2ccccc2o1 [Compound 5e, 2-[1-(Benzofuran-2-yl)ethylidenehydrazono]-5-{[3-(4-chlorophenyl)-1-phenyl-1H-pyrazol-4-yl]methylene}-3-(4-chlorophenyl)thiazolidin-4-one] | 318 (≈ 490 µM) | – | 4.26 | 4.26 | 117.12 | 31.12 | 31.12 | – | – | – | – |
| COc1ccc(-c2nn(-c3ccccc3)cc2C=C2SC(=NN=C(C)c3cc4ccccc4o3)N(c3ccc(Cl)cc3)C2=O)cc1 [Compound 5f, 2-[1-(Benzofuran-2-yl)ethylidenehydrazono]-5-{[3-(4-methoxyphenyl)-1-phenyl-1H-pyrazol-4-yl]methylene}-3-(4-chlorophenyl)thiazolidin-4-one] | – | 69.4 (≈ 108 µM) | 5.83 | 5.83 | 259.71 | 10.39 | 10.39 | potential in vitro anticancer activity | 259.71 | 3.74 | larger than three |
| COc1ccc(-c2nn(-c3ccccc3)cc2C=C2SC(=NN=C(C)c3cc4ccccc4o3)N(c3ccc(OC)cc3)C2=O)cc1 [Compound 5i, 2-[1-(Benzofuran-2-yl)ethylidenehydrazono]-5-{[3-(4-methoxyphenyl)-1-phenyl-1H-pyrazol-4-yl]methylene}-3-(4-methoxyphenyl)thiazolidin-4-one] | 120 (≈ 188 µM) | – | 7.60 | 7.60 | 25.35 | 0.05 | 0.05 | – | – | – | – |
| CC(=NN=C1SC(=Cc2cn(-c3ccccc3)nc2-c2ccccc2)C(=O)N1C1CCCCC1)c1cc2ccccc2o1 [Compound 5j, 2-[1-(Benzofuran-2-yl)ethylidenehydrazono]-5-[(1,3-Diphenyl-1H-pyrazol-4-yl)methylene]-3-cyclohexylthiazolidin-4-one] | – | 63.8 (≈ 109 µM) | 9.90 | 9.90 | 134.00 | 5.08 | 5.08 | potential in vitro anticancer activity | 134.00 | 2.10 | – |

Continued, in another order:

| IC50 [2, 3] [µg/mL] | IC50 [2, 4] [µg/mL] | SMILES | (LD0) PBMCs [1] [µg/mL] | LD0 [1] [µg/mL] | LD50 [1] [µg/mL] | (LD0) HepG2 [2] [µg/mL] | Safe doses (100% viability of HepG2) LD0 [2] [µg/mL] | in vitro anticancer activity against HepG2, in words [2] | LD50 (PBMCs) [1] [µg/mL] | Selectivity index ([2]; LD50 on PBMC / IC50 on HepG2) | Selectivity index ([2]; LD50 on normal cells / IC50 on cancer cells, larger than three = highly selective) |
| --- | --- | --- | --- | --- | --- | --- | --- | --- | --- | --- | --- |
| 173 (≈ 298 µM) | – | CC(=NN=C1SC(=Cc2cn(-c3ccccc3)nc2-c2ccccc2)C(=O)N1c1ccccc1)c1cc2ccccc2o1 [Compound 5a, 2-[1-(Benzofuran-2-yl)ethylidenehydrazono]-5-[(1,3-Diphenyl-1H-pyrazol-4-yl)methylene]-3-phenylthiazolidin-4-one] | 11.17 | 11.17 | 13.99 | 10.15 | 10.15 | – | – | – | – |
| 120 (≈ 195 µM) | – | CC(=NN=C1SC(=Cc2cn(-c3ccccc3)nc2-c2ccc(Cl)cc2)C(=O)N1c1ccccc1)c1cc2ccccc2o1 [Compound 5b, 2-[1-(Benzofuran-2-yl)ethylidenehydrazono]-5-{[3-(4-chlorophenyl)-1-phenyl-1H-pyrazol-4-yl]methylene}-3-phenylthiazolidin-4-one] | 5.83 | 5.83 | 92.27 | 23.02 | 23.02 | – | – | – | – |
| 143 (≈ 235 µM) | – | COc1ccc(-c2nn(-c3ccccc3)cc2C=C2SC(=NN=C(C)c3cc4ccccc4o3)N(c3ccccc3)C2=O)cc1 [Compound 5c, 2-[1-(Benzofuran-2-yl)ethylidenehydrazono]-5-{[3-(4-methoxyphenyl)-1-phenyl-1H-pyrazol-4-yl]methylene}-3-phenylthiazolidin-4-one] | 32.45 | 32.45 | 139.19 | 5.88 | 5.88 | – | – | – | – |
| 1140 (≈ 1850 µM) | – | CC(=NN=C1SC(=Cc2cn(-c3ccccc3)nc2-c2ccccc2)C(=O)N1c1ccc(Cl)cc1)c1cc2ccccc2o1 [Compound 5d, 2-[1-(Benzofuran-2-yl)ethylidenehydrazono]-5-[(1,3-Diphenyl-1H-pyrazol-4-yl)methylene]-3-(4-chlorophenyl)thiazolidin-4-one] | 11.43 | 11.43 | 160.43 | 163.55 | 163.55 | very weak anticancer activity | – | – | – |
| 193 (≈ 316 µM) | – | COc1ccc(N2C(=O)C(=Cc3cn(-c4ccccc4)nc3-c3ccccc3)SC2=NN=C(C)c2cc3ccccc3o2)cc1 [Compound 5g, 2-[1-(Benzofuran-2-yl)ethylidenehydrazono]-5-[(1,3-Diphenyl-1H-pyrazol-4-yl)methylene]-3-(4-methoxyphenyl)thiazolidin-4-one] | 8.88 | 8.88 | 39.01 | 66.72 | 66.72 | – | – | – | – |
